Data: paper PMC6423038, “Deferiprone: Pan-selective Histone Lysine Demethylase Inhibition Activity and Structure Activity Relationship Study” (Scientific Reports, 2019)

What was measured:
[1] = target: T1, KDM6A (UTX) (Homo sapiens, UniProt O15550); assay: KDM cell-free assay (AlphaScreen, BPS Bioscience); format: biochemical; details: for IC50: Fig. 9A, read-out: IC50 (KDM6A inhibition dose response curve)
T1 construct: purchased BPS Bioscience

[2] = test system: MCF-7; assay: Cell viability assay (MTS), antiproliferative activity; format: cell-based; details: Homo sapiens, MCF7, 72 h
Description: (§1) To preliminarily profile the bioactivity of these compounds, we adopted a streamlined approach which involved screening against KDM6A at two concentrations and evaluating antiproliferative activity against three representative cell lines – MCF-7 (ER(+) BCa), MDA-MB-231 (TNBC BCa) and Vero (a non-transformed cell line as control).
(§2) The In vitro proliferation assay was performed as reported previously[15],[16]. Detailed description of the protocol used is included in the Supplementary Information.
(§3) Cell Viability Assay. All cell lines were purchased form ATCC (Manassas, VA), and they were routinely cultured in different media recommended by the supplier. MCF-7 cells were cultured in non-phenol red DMEM (Corning, Manassas, VA) fortified with 10% charcoal treated fetal bovine serum (FBS; Atlanta Biologicals, GA) and 0.2 mM glutamine (Corning, Manassas, VA), whereas MDA-MB-231, DU-145, and Vero were cultured in DMEM with 10% FBS. […] After 24 h incubation in 37 °C under 5% CO2, cells were treated with serially diluted ligands with final DMSO concentration of 1% and incubated for additional 72 h. MTS (CellTiter 96 Aqueous One Solution Cell Proliferation Assays, Promega, Madison, WI) was added to each well 2.5 h prior to recording the absorbance at 490 nm.

[3] = test system: MDA-MB-231; assay: as above; format: cell-based; details: Homo sapiens, 72 h
Description: as §1, §2, §3

[4] = test system: VERO; assay: as above; format: cell-based; details: Chlorocebus sabaeus, 72 h
Description: as §1, §2, §3

[5] = test system: HP1-mediated heterochromatin gene repression in CiA:Oct4 embryonic stem cells; assay: HP1-recruitment assay dose curve (CiA:Oct4, with CIP-rapamycin), flow cytometry; format: cell-based, mouse; details: 48 h with CIP-rapamycin recruitment of HP1; for concentration reaching maximum inhibition of heterochromatin formation / gene repression: doses 250 nM–10 µM
Source text: To elucidate the effect of DFP-based KDM inhibitors on chromatin dynamics, we profiled them in an intracellular assay which measures heterochromatin formation speed. The chromatin in vivo assay (CiA) leverages chemical induced proximity (CIP) to recruit heterochromatin protein 1 (HP1) to a modified Oct4 locus. This reporter system is composed of tandem arrays of Gal4 and zinc finger DNA binding domains in the promoter of one allele of Oct4, where the gene was replaced by a nuclear eGFP reporter. Protein fusions of Gal4-FKBP and FRB-HP1 allow for direct chemical recruitment of HP1 to the CiA:Oct4 reporter locus upon addition of the chemical inducer of proximity (CIP)-rapamycin. After CIP-rapamycin addition, HP1 is recruited to the reporter locus and brings histone methyltransferase enzymes to the chromatin reporter resulting in the repressive H3K9me3 mark being deposited (Fig. 10A). H3K9me3 deposition is the signature mark of heterochromatin and is coupled with gene silencing and loss of GFP expression (Fig. 10B)[33]. Others have shown that H3K4me3 marked nucleosomes impede H3K9 methyltransferase activity. Thus, we postulate that the active H3K4me3 mark must be removed by KDM enzymes as part of the transformation from euchromatin to heterochromatin. Inhibition of KDMs, specifically those targeting H3K4me3, would result in a decrease in H3K9me3 accumulation, which would be measured in our assay as an increase in GFP positive cells.
To determine the effect of DFP-based KDM inhibitors on HP1-mediated gene repression, we treated CiA:Oct4 embryonic stem (ES) cells with doses of representative compounds ranging from 10 µM–250 nM for 48 h with CIP-rapamycin recruitment of HP1 (Fig. 10C). […] The percentage of GFP(+) cells was determined by flow cytometry as indicated in representative histograms (Supplemental Fig. S8).
(§4) Day 0, CiA:Oct4 N118/163 cells were grown in ES media and seeded at a density of 10,000 cells per well in 100 μL media (100,000 cells mL^−1) on gelatin coated 96 well plates. Day 1, culture media was aspirated and replaced with 100 µL ES media containing +/− 6 nM rapamycin. 10 µM, 5 µM, 2.5 µM, 1 µM, 500 nM, and 250 nM concentrations of compound or DMSO were added using a TTP Labtech Mosquito HTS liquid handler. Days 2, fresh ES media +/− rapamycin and compound were added as in Day 1. Day 3, cells were washed with PBS and trypsinized using 0.25% trypsin-EDTA. Trypsin was quenched with serum. Cells were resuspended by pipetting in preparation for flow cytometry analysis.
(§5) Flow cytometry data was acquired using the Intellicyt iQue Screener and analyzed with FlowJo software.
The CiA:Oct4 recruitment system in mouse embryonic stem cells contains Gal4 and Zinc finger DNA binding arrays and a downstream nuclear eGFP gene in place of a single Oct4 allele as previously described.^30 The CiA:Oct4 N118/N163 cell line containing viral integrations of N118 and N163 plasmids (N118- nLV EF-1α-Gal-FKBPx1-HA-PGK-Blast, N163- nLV EF-1α-HP1α (CS)-Frbx2(Frb+FrbWobb)-V5-PGK-Puro) was used for inhibition of HP1-mediated heterochromatin studies. All plasmids are freely available on addgene.
(§6) HP1-Recruitment Assay Dose Curve. Day 0, CiA:Oct4 N118/163 cells were grown in ES media and seeded at a density of 10,000 cells per well in 100 µL media (100,000 cells mL^-1) on gelatin coated 96 well plates. Day 1, culture media was aspirated and replaced with 100 µL ES media containing +/- 6 nM rapamycin. 10 µM, 5 µM, 2.5 µM, 1 µM, 500 nM, and 250 nM concentrations of compound or DMSO were added using a TTP Labtech Mosquito HTS liquid handler. Days 2, fresh ES media +/- rapamycin and compound were added as in Day 1. Day 3, cells were washed with PBS and trypsinized using 0.25% trypsin-EDTA. Trypsin was quenched with serum. Cells were resuspended by pipetting in preparation for flow cytometry analysis.
Flow Cytometry and Analysis.

[6] = test system: Oct4 GFP expression in CiA:Oct4 embryonic stem cells; assay: CiA:Oct4 reporter dose response without HP1 recruitment (no CIP-rapamycin), flow cytometry; format: cell-based, mouse; details: 48 h without HP1 recruitment; for decrease in the percentage of GFP(+) cells: at 2.5 µM
Source text: Embryonic stem cells are sensitive to environmental stimuli which may trigger cell differentiation. During mammalian stem cell differentiation or exposure to toxic compounds, Oct4 is known to be repressed as cells lose reinforcement of the pluripotency transcriptional activation network[35],[36]. Therefore, the CiA:Oct4 reporter without CIP-recruitment of HP1 functions is a valid system to determine how much cell differentiation or toxicity is occurring by measuring the GFP expression levels. To elucidate the effect of DFP-based KDM inhibitors on Oct4 GFP expression in the absence of HP1 recruitment, we performed dose response studies without addition of CIP-rapamycin (Fig. 11A).
as §4, §5, §6
Flow Cytometry and Analysis. Flow cytometry data was acquired using the Intellicyt iQue Screener and analyzed with FlowJo software. Cell populations were gated based on forward and side scatter height. Single cell populations were gated using forward scatter area by forward scatter height. Autofluorescent cells were excluded and the remaining cells were gated into GFP (-) and GFP (+) populations based on DMSO control samples.

[7] = test system: T47D cells; assay: Viability of T47D cells at three concentrations; format: cell-based, human; details: Fig. S9
Description: To determine the antitumor potential of the DFP-based KDM inhibitors, we investigated the efficacy of a representative example, 2j, in two murine xenograft models of BCa. The xenografts were established using two human BCa cell lines – T47D (ER(+)) and MDA-MB-231 (ER(−)). […] Because our in vitro study was conducted using MCF-7 as a model of ER(+) cell, we first tested the effect of 2j on the viability of T47D cells at three concentrations. […] The effect of 2j on T47D viability mirrored that of its effect on MCF-7, confirming preferential cytotoxicity of the DFP-based agents […]. Once we established that T47D cells are sensitive to 2j, xenografts of T47D and MDA-MB-231 were established in female athymic nude mice (8-week old) by injection of cells (1 × 10^7) into the mammary fat pad as described previously[37],[38]. After the tumor volume reached ~250 mm^3, mice were treated with 2j (25 mg/kg body weight) for 8 weeks. […] Relative to control, 2j caused approx. 81% (4426 vs 884 mm^3) and 70% (5116 vs 1536 mm^3) reduction in the growth of T47D and MDA-MBMB-231 tumors, respectively.

[8] = test system: MDA-MB-231 tumors; assay: Mouse xenograft assay, MDA-MB-231 (ER(−)); format: in vivo; details: MDA-MB-231 xenograft
[9] = Table 5, values calculated by linear regression

T1 sequence (O15550 whole entry): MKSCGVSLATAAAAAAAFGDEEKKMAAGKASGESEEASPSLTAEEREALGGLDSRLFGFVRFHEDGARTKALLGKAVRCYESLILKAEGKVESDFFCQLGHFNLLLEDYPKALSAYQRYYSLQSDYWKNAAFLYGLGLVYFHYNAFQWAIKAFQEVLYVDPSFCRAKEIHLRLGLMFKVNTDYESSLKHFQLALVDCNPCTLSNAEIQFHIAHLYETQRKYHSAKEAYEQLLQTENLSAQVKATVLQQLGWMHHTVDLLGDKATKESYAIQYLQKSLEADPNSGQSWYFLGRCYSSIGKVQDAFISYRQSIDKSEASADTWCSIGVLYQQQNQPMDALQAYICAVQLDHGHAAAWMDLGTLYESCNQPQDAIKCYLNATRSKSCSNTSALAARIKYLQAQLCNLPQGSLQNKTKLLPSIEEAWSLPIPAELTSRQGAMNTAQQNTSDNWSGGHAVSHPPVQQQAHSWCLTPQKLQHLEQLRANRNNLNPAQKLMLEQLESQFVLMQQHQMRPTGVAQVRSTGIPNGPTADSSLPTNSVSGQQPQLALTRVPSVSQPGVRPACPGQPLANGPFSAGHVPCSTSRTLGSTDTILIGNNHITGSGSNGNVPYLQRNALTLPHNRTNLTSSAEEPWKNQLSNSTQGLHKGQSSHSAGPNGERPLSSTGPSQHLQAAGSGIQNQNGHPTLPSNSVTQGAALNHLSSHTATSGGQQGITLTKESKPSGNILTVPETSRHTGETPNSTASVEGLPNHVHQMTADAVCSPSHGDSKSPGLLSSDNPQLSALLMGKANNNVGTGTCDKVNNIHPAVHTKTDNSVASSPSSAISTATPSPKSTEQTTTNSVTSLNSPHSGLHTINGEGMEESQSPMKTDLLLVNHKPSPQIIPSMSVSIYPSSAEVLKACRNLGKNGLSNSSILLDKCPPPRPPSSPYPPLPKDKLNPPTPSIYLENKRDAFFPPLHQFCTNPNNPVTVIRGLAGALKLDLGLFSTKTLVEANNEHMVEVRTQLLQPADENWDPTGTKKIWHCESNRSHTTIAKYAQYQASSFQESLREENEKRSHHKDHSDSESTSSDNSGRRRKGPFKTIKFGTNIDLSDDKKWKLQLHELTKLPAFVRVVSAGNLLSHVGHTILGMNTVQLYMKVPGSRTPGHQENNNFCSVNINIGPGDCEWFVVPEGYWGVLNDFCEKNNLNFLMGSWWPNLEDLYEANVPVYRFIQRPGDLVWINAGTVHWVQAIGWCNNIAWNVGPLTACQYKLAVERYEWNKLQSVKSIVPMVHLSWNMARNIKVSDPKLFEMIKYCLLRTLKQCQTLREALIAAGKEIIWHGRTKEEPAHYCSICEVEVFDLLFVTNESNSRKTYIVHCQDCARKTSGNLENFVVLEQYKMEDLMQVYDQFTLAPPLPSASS

Cc1c(O)c(=O)ccn1CCCCCCn1cc(-c2ccc(-c3ccccc3)cc2)nn1 [2v]
inhibition at 1 µM ([1]; Table 2): 12%
inhibition at 10 µM ([1]; Table 2): 49%
IC50 ([2]; Table 5): > 50 µM
IC50 ([3]; Table 5): 2.5 µM
IC50 ([4]; Table 5): 4.9 µM
concentration reaching maximum inhibition of heterochromatin formation / gene repression [5]: 1 µM
decrease in the percentage of GFP(+) cells [6]: ~ 30%

Cc1c(O)c(=O)ccn1CCn1cc(-c2ccccc2)nn1 [1a]
inhibition at 1 µM ([1]; Table 2): 12%
inhibition at 10 µM ([1]; Table 2): 96%
IC50 ([2]; Table 4): > 50 µM
IC50 ([3]; Table 4): > 50 µM
IC50 ([4]; Table 4): > 100 µM
inhibition of heterochromatin formation ([5]; up to 10 µM): did not inhibit heterochromatin formation

COc1ccc2cc(-c3cn(CCCCCCn4ccc(=O)c(O)c4C)nn3)ccc2c1 [2w]
inhibition at 1 µM ([1]; Table 2): 16%
inhibition at 10 µM ([1]; Table 2): 57%
IC50 ([2]; Table 5): > 50 µM
IC50 ([3]; Table 5): 1.2 µM
IC50 ([4]; Table 5): 3.9 µM
concentration reaching maximum inhibition of heterochromatin formation / gene repression [5]: 1 µM
decrease in the percentage of GFP(+) cells [6]: ~ 30%

Cc1c(O)c(=O)ccn1CCCCCn1cc(-c2ccc(-c3ccncc3)cc2)nn1 [2t]
inhibition at 1 µM ([1]; Table 2): 8%
inhibition at 10 µM ([1]; Table 2): 99%
IC50 [2, 9]: 37.6 µM
IC50 ([3]; Table 5): 3.6 µM
IC50 ([4]; Table 5): 29.2 µM
concentration reaching maximum inhibition of heterochromatin formation / gene repression [5]: 10 µM
decrease in percentage GFP(+) cells ([6]; only at the 10 µM dose): ~ 20%

COc1cccc(-c2cn(CCCCCn3ccc(=O)c(O)c3C)nn2)c1 [2j]
inhibition at 1 µM ([1]; Table 2): 8%
inhibition at 10 µM ([1]; Table 2): 100%
IC50 [1]: 3.2 µM
IC50 [2, 9]: 34.1 µM
IC50 ([3]; Table 5): 10.6 µM
IC50 ([4]; Table 5): > 50 µM
increase in the number of GFP positive cells [5]: 20%
growth of T47D cells [7]: dose-dependent reduction
reduction in the growth of tumors relative to control ([8]; athymic nude mice, 25 mg/kg body weight for 8 weeks): ~70%
tumor volume ([8]; 25 mg/kg for 8 weeks, control 5116 mm^3): 1536 mm^3

Cc1c(O)c(=O)ccn1C1CCC(CC2CCC(n3ccc(=O)c(O)c3C)CC2)CC1 (stereo not drawn) [3g]
inhibition at 1 µM ([1]; Table 3): 9%
inhibition at 10 µM ([1]; Table 3): 100%
IC50 [1]: 1.7 µM
IC50 ([2]; Table 6, values calculated by linear regression): 31.1 µM
IC50 ([3]; Table 6): 3.5 µM
IC50 ([4]; Table 6): > 50 µM
concentration reaching maximum inhibition of heterochromatin formation / gene repression [5]: 2.5 µM
decrease in the percentage of GFP(+) cells [6]: ~ 30%
